From patent publication EP1229026A1, “ALKOXYIMINOALKANOIC ACID DERIVATIVES” (Takeda Chemical Industries, Ltd., priority 1999, dated 2001)

Columns and labels:
PPARγ-RXRα heterodimer = target: T1, PPARγ-RXRα heterodimer (Homo sapiens, UniProt P37231); test: PPARγ-RXRα heterodimer ligand activity (luciferase reporter in PPARγ:RXRα:4ERPP/CHO-K1 cells); assay type: cell-based; conditions: concentration for 50% of the maximum fold induction of luciferase activity, 48 hours
T1 construct: 1.4 kb DNA fragment containing PPARγ gene was recovered from the gel; expressed in transfected cells; host or cells: CHO-K1
T1 sequence (P37231 1-477 isoform P37231-2): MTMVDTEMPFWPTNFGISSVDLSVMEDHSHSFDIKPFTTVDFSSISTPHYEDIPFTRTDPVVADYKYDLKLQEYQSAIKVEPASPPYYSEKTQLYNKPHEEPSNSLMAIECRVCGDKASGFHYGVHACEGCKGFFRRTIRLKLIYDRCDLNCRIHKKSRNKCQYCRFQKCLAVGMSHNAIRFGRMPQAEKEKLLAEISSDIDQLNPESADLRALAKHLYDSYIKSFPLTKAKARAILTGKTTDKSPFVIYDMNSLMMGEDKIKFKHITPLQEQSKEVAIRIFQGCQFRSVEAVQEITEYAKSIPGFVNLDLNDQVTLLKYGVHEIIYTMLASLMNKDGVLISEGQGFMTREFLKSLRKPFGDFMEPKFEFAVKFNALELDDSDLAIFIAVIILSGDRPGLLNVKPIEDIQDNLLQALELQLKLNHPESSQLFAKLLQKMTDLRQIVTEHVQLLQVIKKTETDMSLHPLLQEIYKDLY
T1 sequence (P19793 1-462 partner): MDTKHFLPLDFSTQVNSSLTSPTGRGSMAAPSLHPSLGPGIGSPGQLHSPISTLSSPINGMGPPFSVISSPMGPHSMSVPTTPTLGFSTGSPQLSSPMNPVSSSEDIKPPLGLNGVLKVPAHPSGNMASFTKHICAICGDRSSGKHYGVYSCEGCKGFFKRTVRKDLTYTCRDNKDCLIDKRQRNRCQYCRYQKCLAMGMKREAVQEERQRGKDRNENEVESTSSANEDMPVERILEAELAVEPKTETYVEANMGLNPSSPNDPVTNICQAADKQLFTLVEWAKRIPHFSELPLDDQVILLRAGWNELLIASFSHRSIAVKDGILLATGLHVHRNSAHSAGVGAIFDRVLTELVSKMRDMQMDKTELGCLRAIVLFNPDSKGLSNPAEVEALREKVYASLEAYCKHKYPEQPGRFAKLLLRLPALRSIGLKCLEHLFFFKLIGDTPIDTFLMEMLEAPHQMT
Protocol: A PPARγ:RXRα:4ERPP/CHO-K1 cells obtained in Reference Example 5 to be described later were cultured in HAM F12 medium (produced by NISSUI PHARMACEUTICAL CO., LTD.) containing 10% fetal bovine serum (produced by Life Technologies, Inc., USA) and then inoculated to a 96-well white plate (produced by Corning Costar Corporation, USA) at the density of 2×10^4 cells/well, and cultured in a CO2 gas incubator at 37°C overnight.
After washing the 96 well white plate with PBS (phosphate-buffered saline), 90 µl of HAM F12 medium containing 0.1% fatty acid-free bovine serum albumin (BSA) and 10 µl of test compound were added, which was followed by culture in a CO2 gas incubator at 37°C for 48 hours. After removing the medium, 40 µl of PIKKAGENE 7.5 (produced by Wako Pure Chemical Industries, Ltd.) was added. After stirring, the luciferase activity was determined using Lumistar (produced by BMG Labtechnologies GmbH, Germany).
A fold induction was calculated based on the luciferase activity of each test compound where the luciferase activity in the test compound non-administration group was taken as 1. The values of the test compound concentration and the fold induction were analyzed using PRISM 2.01 (produced by GraphPad Software Inc., USA) to calculate the EC50 values, the effective concentration of the test compound for 50% of the maximum fold induction. […]

KKA^y mice [1] = test: Hypoglycemic and hypolipidemic (hypotriglyceridemic) actions in mice; assay type: in vivo; conditions: four days; for Hypoglycemic action (%): percent decrease of plasma glucose vs non-administration group (100%); for Hypolipidemic action (%): percent decrease of plasma triglyceride vs non-administration group (100%)
Protocol: Test compounds were mixed in a powdery diet (CE-2, Japan Clea) at the concentration of 0.01% (compound of Example 2) or 0.005% (compound of Example 4), and freely given to KKA^y mice (11 to 12 weeks old, 5 mice per group), a model of obesity and type II diabetes, for four days. During this period, water was given freely. Blood was sampled from orbital venous plexus, and glucose and triglyceride levels in plasma separated from blood were determined enzymatically using L type Wako Glu2 (Wako Pure Chemical Industries, Ltd.) or L type Wako TG•H (Wako Pure Chemical Industries, Ltd.), respectively.

KKA^y mice [2] = test: Total cholesterol lowering action and plasma anti-arteriosclerosis index-increasing action in mice; assay type: in vivo; conditions: 0.005% in powdery diet, four days
Protocol: Test compound was mixed in a powdery diet (CE-2, Japan Clea) at the concentration of 0.005%, and freely given to KKA^y mice (12 weeks old, 5 mice per group), a model of obesity and type II diabetes, for four days. During this period, water was given freely. Blood was sampled from orbital venous plexus and plasma was separated and analyzed for components. Total cholesterol levels were determined using L type Wako Cholesterol (Wako Pure Chemical Industries, Ltd.). Precipitation reagent for apoB containing lipoprotein (Wako Pure Chemical Industries, Ltd.) was added to a part of the plasma to allow precipitation of non-HDL lipoprotein, and cholesterol (HDL cholesterol) in the resulting supernatant was determined. The plasma anti-arteriosclerosis index [(HDL cholesterol/total cholesterol)×100] was calculated using these cholesterol levels.
In the Table, "Total cholesterol lowering action (%)" represents the percent reduction (%) of total cholesterol level in the test compound administration group, when the total cholesterol level in the test compound non-administration group is taken as 100%. "Plasma anti-arteriosclerosis index-increasing action (%)" represents a percent increase (%) of plasma anti-arteriosclerosis index in the test compound administration group, when the plasma anti-arteriosclerosis index in the test compound non-administration group-is taken as 100%.

Row | SMILES | EC50 (PPARγ-RXRα heterodimer) | Hypoglycemic action (%) (KKA^y mice [1]; 0.01% in powdery diet) | Hypolipidemic action (%) (KKA^y mice [1]; 0.01% in powdery diet) | Plasma anti-arteriosclerosis index-increasing action (%) (KKA^y mice [2]; percent increase of index [(HDL cholesterol/total cholesterol)×100] vs non-administration group (100%)) | Total cholesterol lowering action (%) (KKA^y mice [2]; percent reduction of total cholesterol level vs non-administration group (100%)) | Hypoglycemic action (%) (KKA^y mice [1]; 0.005% in powdery diet) | Hypolipidemic action (%) (KKA^y mice [1]; 0.005% in powdery diet)
1 | Cc1oc(-c2ccccc2)nc1COc1ccc2cc(CO/N=C(\CCC(=O)O)c3ccccc3)ccc2c1 [Example 2, (E)-4-[6-(5-methyl-2-phenyl-4-oxazolylmethoxy)-2-naphthylmethoxyimino]-4-phenylbutyric acid] | 1600 nM | 30% | 22% | – | – | – | –
2 | Cc1oc(-c2ccccc2)nc1COc1ccc(CO/N=C(\CCC(=O)O)c2ccccc2)cn1 [Example 4, (E)-4-[6-(5-methyl-2-phenyl-4-oxazolylmethoxy)-3-pyridylmethoxyimino]-4-phenylbutyric acid] | 1.4 nM | – | – | 39% | 22% | 54% | 90%
